According to patent US11912701B2, “Protein kinase inhibitors for promoting liver regeneration or reducing or preventing hepatocyte death” (HEPAREGENIX GMBH, priority 2018, dated 2024):

Legend:
[1] = target: T1, MKK4 (Homo sapiens, UniProt P45985); experiment: KINOMEscan competition binding assay, MKK4; conditions: residual percent of control binding (PoC) at 100 nM
T1 construct: S84/D399; host or cells: HEK-293
T1 sequence (P45985 84-399): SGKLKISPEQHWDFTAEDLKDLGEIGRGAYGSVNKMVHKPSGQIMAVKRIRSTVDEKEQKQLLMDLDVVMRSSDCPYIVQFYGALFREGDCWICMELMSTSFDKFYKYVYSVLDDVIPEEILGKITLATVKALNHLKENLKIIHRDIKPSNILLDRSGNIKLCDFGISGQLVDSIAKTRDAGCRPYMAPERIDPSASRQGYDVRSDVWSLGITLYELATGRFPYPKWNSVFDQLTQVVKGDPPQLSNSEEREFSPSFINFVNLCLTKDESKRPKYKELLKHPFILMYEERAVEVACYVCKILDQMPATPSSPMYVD
Method in brief: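 KINOMEscan competition of compound versus immobilized ligand for DNA-tagged MKK4 expressed in HEK-293 cells. Bound kinase was quantified by qPCR after elution.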

[2] = target: T2, BRaf (Homo sapiens, UniProt P15056); experiment: KINOMEscan competition binding assay, BRaf; conditions: ratio PoC (off-target)/PoC (MKK4)
T2 construct: purchased ProQinase GmbH, Freiburg, Germany (33PanQinase Assay Service)
Method in brief: (§1)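 DNA-tagged kinases expressed in HEK-293 cells compete between immobilized ligand on blocked beads and test compound at 100 nM; kinase retained on beads quantified by qPCR of the tag.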

[3] = target: T3, MKK4 (Homo sapiens, UniProt P45985); experiment: 33PanQinase enzyme assay, MKK4; assay type: biochemical; conditions: assay 'IC50'; read-out: Potency MKK4 (IC50)
T3 construct: purchased ProQinase GmbH, Freiburg, Germany (33PanQinase Assay Service)
T3 sequence (P45985 1-399): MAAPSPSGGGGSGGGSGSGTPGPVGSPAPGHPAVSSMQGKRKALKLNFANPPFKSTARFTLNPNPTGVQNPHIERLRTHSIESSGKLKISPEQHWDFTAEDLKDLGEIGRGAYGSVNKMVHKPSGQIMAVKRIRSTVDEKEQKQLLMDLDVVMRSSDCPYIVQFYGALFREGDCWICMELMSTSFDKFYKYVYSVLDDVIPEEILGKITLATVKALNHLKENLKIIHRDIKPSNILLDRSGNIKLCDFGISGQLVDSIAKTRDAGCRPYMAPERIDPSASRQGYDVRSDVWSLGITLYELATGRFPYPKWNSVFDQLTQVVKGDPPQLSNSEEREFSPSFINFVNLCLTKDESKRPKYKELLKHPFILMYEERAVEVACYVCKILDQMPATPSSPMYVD
Method in brief: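 Radiometric 33PanQinase assay: kinase, substrate, ATP and compound in standard buffer, 60 min at 30 °C; 33Pi incorporation read by scintillation counting.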

[4] = target: T2, BRaf; experiment: 33PanQinase enzyme assay, BRaf; assay type: biochemical; conditions: ratio IC50(BRaf)/IC50(MKK4)
Method in brief: (§2)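 Radiometric kinase reactions with ATP, test compound in DMSO and enzyme/substrate mix were incubated 60 min at 30 °C, stopped with 2% H3PO4 and washed; incorporated 33Pi was counted by scintillation. Single-concentration data are given as % residual activity; IC50 values come from least-squares curve fits.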

[5] = target: T4, MKK7 (Homo sapiens, UniProt O14733); experiment: KINOMEscan competition binding assay, MKK7; design: M1/R419; host or cells: HEK-293; conditions: ratio PoC (off-target)/PoC (MKK4)
T4 sequence (O14733 1-419): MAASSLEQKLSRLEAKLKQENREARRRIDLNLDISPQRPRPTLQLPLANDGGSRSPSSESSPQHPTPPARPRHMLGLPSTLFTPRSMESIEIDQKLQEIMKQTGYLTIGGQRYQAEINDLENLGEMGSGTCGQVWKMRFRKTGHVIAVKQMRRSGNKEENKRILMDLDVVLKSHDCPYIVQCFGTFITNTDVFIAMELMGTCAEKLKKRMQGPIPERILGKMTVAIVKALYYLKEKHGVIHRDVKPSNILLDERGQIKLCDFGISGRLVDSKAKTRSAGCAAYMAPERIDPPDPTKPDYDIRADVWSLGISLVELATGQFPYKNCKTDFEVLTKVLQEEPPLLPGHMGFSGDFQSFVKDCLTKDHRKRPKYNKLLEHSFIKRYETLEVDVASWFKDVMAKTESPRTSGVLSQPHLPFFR
Method in brief: as §1

[6] = target: T5, JNK1 (Homo sapiens, UniProt P45983); experiment: KINOMEscan competition binding assay, JNK1; design: M1/Q384; host or cells: HEK-293; conditions: ratio PoC (off-target)/PoC (MKK4)
Method in brief: as §1
Target sequence in this assay (P45983 1-384 isoform P45983-2): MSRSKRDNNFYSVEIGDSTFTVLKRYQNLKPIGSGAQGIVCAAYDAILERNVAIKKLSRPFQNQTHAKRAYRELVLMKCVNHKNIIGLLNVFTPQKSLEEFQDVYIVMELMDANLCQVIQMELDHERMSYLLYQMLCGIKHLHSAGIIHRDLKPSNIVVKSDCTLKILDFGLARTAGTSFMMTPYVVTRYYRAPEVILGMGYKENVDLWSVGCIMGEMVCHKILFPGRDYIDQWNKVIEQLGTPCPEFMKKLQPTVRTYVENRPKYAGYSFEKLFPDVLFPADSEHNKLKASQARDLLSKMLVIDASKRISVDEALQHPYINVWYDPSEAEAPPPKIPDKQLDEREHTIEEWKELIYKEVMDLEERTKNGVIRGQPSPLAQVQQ

[7] = target: T5, JNK1; experiment: 33PanQinase enzyme assay, JNK1; assay type: biochemical; design: purchased ProQinase GmbH, Freiburg, Germany (33PanQinase Assay Service); conditions: ratio IC50(JNK1)/IC50(MKK4)
Method in brief: as §2
Target sequence in this assay (P45983 whole entry): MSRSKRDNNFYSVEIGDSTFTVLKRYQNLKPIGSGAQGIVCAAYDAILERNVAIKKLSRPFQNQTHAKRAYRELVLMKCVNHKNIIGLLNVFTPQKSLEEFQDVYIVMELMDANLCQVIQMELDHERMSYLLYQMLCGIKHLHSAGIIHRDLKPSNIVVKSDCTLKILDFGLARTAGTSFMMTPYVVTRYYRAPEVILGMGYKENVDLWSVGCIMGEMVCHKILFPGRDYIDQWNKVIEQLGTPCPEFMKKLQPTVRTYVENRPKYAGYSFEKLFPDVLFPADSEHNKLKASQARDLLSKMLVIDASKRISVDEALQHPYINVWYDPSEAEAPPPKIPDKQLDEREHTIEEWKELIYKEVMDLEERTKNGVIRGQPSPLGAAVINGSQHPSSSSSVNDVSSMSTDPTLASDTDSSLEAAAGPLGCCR

[8] = target: T4, MKK7; experiment: 33PanQinase enzyme assay, MKK7; assay type: biochemical; design: purchased ProQinase GmbH, Freiburg, Germany (33PanQinase Assay Service); conditions: ratio IC50(MKK7)/IC50(MKK4)
Method in brief: as §2

T2 sequence (P15056 whole entry, species assumed): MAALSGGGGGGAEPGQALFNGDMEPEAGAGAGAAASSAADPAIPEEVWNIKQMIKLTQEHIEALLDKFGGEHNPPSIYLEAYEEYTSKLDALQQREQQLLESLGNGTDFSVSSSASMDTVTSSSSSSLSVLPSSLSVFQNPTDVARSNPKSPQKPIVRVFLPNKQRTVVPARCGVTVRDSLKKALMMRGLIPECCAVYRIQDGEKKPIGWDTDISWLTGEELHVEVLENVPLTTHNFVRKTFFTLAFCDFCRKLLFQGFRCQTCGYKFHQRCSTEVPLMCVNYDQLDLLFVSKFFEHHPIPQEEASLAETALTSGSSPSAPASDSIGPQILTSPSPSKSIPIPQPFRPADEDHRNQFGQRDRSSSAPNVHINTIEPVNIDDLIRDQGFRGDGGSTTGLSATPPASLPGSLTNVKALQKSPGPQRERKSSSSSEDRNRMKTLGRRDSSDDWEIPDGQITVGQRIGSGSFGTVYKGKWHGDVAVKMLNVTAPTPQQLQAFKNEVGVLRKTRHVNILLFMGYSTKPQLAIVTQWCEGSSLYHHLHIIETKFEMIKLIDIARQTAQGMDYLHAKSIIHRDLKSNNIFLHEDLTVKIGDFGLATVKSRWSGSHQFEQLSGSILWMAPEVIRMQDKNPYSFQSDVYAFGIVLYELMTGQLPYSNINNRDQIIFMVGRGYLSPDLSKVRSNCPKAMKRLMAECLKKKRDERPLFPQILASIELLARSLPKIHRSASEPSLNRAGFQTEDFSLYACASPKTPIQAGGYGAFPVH

Row | SMILES | MKK4 [% Ctrl @ 100 nM [1] | selectivity based on % Ctrl @100 nM vs. Braf [2] | IC50 [3] [nM] | Selectivity Braf, IC50(off-target)/IC50(MKK4) [4] | selectivity based on % Ctrl @100 nM vs. MKK7 [5] | selectivity based on % Ctrl @100 nM vs. JNK1 [6] | Selectivity JNK1, IC50(off-target)/IC50(MKK4) [7] | Selectivity IVIKK7, IC50(off-target)/IC50(MKK4) [8]
1 | CCCS(=O)(=O)Nc1ccc(F)c(C(=O)c2c[nH]c3ncc(-c4ccc([N+](=O)[O-])cc4)cc23)c1F [Example 107, N-(2,4-difluoro-3-(5-(4-nitrophenyl)-1H-pyrrolo[2,3-b]pyridine-3-carbonyl)phenyl)propane-1-sulfonamide] | + (3 ≤ PoC < 30) | + (10 ≥ ratio > 3) | 100 to 1000 | ◯ (3 ≥ IC50(off-target)/IC50(MKK4)) | ++ (100 ≥ ratio > 10) | ++ (100 ≥ ratio > 10) | + (10 ≥ IC50(off-target)/IC50(MKK4) > 3) | +++ (IC50(off-target)/IC50(MKK4) > 100)
2 | CCCS(=O)(=O)Nc1ccc(F)c(C(=O)c2c[nH]c3ncc(-c4ccc(C(=O)O)cc4)cc23)c1F [Example 108, 4-(3-(2,6-difluoro-3-(propylsulfonamido)benzoyl)-1H-pyrrolo[2,3-b]pyridin-5-yl)benzoic acid] | +++ (PoC < 1) | ++ (100 ≥ ratio > 10) | < 100 | ◯ (3 ≥ IC50(off-target)/IC50(MKK4)) | +++ (Ratio > 100) | +++ (Ratio > 100) | + (10 ≥ IC50(off-target)/IC50(MKK4) > 3) | +++ (IC50(off-target)/IC50(MKK4) > 100)
3 | CCCS(=O)(=O)Nc1ccc(F)c(C(=O)c2c[nH]c3ncc(-c4ccc(C(N)=O)cc4)cc23)c1F [Example 109, 4-(3-(2,6-difluoro-3-(propylsulfonamido)benzoyl)-1H-pyrrolo[2,3-b]pyridin-5-yl)benzamide] | +++ (PoC < 1) | + (10 ≥ ratio > 3) | 100 to 1000 | ◯ (3 ≥ IC50(off-target)/IC50(MKK4)) | +++ (Ratio > 100) | +++ (Ratio > 100) | + (10 ≥ IC50(off-target)/IC50(MKK4) > 3) | +++ (IC50(off-target)/IC50(MKK4) > 100)
4 | CCCS(=O)(=O)Nc1ccc(F)c(C(=O)c2c[nH]c3ncc(-c4ccc(OC(F)(F)F)cc4)cc23)c1F [Example 111, N-(2,4-difluoro-3-(5-(4-(trifluoromethoxy)phenyl)-1H-pyrrolo[2,3-b]pyridine-3-carbonyl)phenyl)propane-1-sulfonamide] | ◯ (30 ≤ PoC) | ◯ (3 ≥ Ratio) | 100 to 1000 | ◯ (3 ≥ IC50(off-target)/IC50(MKK4)) | ◯ (3 ≥ Ratio) | ◯ (3 ≥ Ratio) | + (10 ≥ IC50(off-target)/IC50(MKK4) > 3) | +++ (IC50(off-target)/IC50(MKK4) > 100)
5 | O=C(c1cccc(NS(=O)(=O)Cc2ccccc2)c1F)c1c[nH]c2ncc(-c3ccc(Cl)cc3)cc12 [Example 124, N-(3-(5-(4-chlorophenyl)-1H-pyrrolo[2,3-b]pyridine-3-carbonyl)-2-fluorophenyl)-1-phenylmethanesulfonamide] | + (3 ≤ PoC < 30) | ++ (100 ≥ ratio > 10) | 100 to 1000 | +++ (IC50(off-target)/IC50(MKK4) > 100) | ++ (100 ≥ ratio > 10) | ++ (100 ≥ ratio > 10) | ◯ (3 ≥ IC50(off-target)/IC50(MKK4)) | +++ (IC50(off-target)/IC50(MKK4) > 100)
